For one experiment, the target named is PI3K alpha (Homo sapiens (Human), UniProt P42336). Put plainly: Enzymatic PI3K alpha isoform inhibition (lipid kinase activity, Kinase-Glo luminescence). The experiment is classed as biochemical. Particulars: Enzymatic assay. The protocol: (§1) 1.1 Test of Lipid Kinase Activity […]
(§2) In a more preferred assay, the kinase reaction is performed in a final volume of 10 μl per well of a low volume non-binding CORNING, 384 well black plate (Cat. No. #3676). The final concentrations of ATP and phosphatidyl inositol (PI) in the assay are 1 μM and 10 μg/mL, respectively. The reaction is started by the addition of ATP.
(§3) The components of the assay are added per well as follows:
(§4) The Z′ value is a universal measurement of the robustness of an assay. A Z′ between 0.5 and 1.0 is considered an excellent assay.
(§5) IC50 is determined by a four parameter curve fitting routine that comes along with “excel fit”. A four parameter logistic equation is used to calculate IC50 values (IDBS XLfit) of the percentage inhibition of each compound at 8 concentrations (usually 10, 3.0, 1.0, 0.3, 0.1, 0.030, 0.010 and 0.003 μM). Alternatively, IC50 values are calculated using idbsXLfit model 204, which is a 4 parameter logistic model.
(§6) Yet alternatively, for an ATP depletion assay, compounds of the formula I to be tested are dissolved in DMSO and directly distributed into a white 384-well plate at 0.5 μl per well. To start the reaction, 10 μl of 10 nM PI3 kinase and 5 μg/mL 1-alpha-phosphatidylinositol (PI) are added into each well followed by 10 μl of 2 μM ATP. The reaction is performed until approx 50% of the ATP is depleted, and then stopped by the addition of 20 μl of Kinase-Glo solution (Promega Corp., Madison, Wis., USA). The stopped reaction is incubated for 5 minutes and the remaining ATP is then detected via luminescence. IC50 values are then determined.

Another experiment deals with PI3K delta (Homo sapiens (Human), UniProt O00329). Put plainly: Enzymatic PI3K delta isoform inhibition (lipid kinase activity, Kinase-Glo luminescence). The experiment is classed as biochemical. Particulars: Enzymatic assay. On the procedure: as §1, §2, §3, §4, §5, §6

From patent US9539260B2, “Dihydro-benzo-oxazine and dihydro-pyrido-oxazine derivatives” (Novartis AG, priority 2012, dated 2017) come the findings set out here.

PI3K alpha, sequence (P42336 other isoform, or with tags, fused parts or gaps): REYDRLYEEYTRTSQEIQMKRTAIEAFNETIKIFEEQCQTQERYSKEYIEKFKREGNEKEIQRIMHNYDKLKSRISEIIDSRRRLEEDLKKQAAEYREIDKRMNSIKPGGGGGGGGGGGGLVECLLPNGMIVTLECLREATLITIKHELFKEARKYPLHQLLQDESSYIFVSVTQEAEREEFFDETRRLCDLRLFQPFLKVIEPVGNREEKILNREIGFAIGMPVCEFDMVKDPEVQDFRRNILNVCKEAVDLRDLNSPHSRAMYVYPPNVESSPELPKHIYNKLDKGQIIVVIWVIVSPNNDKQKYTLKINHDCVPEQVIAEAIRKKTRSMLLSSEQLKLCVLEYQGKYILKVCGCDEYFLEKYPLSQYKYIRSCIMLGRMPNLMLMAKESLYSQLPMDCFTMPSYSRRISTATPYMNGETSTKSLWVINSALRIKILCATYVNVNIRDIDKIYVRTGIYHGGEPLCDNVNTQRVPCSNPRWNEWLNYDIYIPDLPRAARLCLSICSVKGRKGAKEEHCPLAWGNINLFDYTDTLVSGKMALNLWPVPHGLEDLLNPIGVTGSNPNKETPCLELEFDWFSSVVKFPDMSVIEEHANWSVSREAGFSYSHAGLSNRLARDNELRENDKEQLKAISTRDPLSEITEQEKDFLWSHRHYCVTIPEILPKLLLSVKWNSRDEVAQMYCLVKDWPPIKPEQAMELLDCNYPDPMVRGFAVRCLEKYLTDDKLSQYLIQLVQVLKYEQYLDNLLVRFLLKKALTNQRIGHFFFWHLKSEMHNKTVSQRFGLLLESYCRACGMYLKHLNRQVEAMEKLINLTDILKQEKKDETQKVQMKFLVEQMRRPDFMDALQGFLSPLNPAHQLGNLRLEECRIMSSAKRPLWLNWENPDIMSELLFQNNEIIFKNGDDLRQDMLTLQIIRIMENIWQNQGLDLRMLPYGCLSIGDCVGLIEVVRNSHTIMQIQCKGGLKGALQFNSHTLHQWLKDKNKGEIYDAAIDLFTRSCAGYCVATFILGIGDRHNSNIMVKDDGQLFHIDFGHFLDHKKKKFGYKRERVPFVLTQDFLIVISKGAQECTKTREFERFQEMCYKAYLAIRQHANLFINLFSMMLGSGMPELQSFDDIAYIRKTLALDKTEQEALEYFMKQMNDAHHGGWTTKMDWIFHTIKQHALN
PI3K delta, sequence (O00329 other isoform, or with tags, fused parts or gaps linker GGGGGG): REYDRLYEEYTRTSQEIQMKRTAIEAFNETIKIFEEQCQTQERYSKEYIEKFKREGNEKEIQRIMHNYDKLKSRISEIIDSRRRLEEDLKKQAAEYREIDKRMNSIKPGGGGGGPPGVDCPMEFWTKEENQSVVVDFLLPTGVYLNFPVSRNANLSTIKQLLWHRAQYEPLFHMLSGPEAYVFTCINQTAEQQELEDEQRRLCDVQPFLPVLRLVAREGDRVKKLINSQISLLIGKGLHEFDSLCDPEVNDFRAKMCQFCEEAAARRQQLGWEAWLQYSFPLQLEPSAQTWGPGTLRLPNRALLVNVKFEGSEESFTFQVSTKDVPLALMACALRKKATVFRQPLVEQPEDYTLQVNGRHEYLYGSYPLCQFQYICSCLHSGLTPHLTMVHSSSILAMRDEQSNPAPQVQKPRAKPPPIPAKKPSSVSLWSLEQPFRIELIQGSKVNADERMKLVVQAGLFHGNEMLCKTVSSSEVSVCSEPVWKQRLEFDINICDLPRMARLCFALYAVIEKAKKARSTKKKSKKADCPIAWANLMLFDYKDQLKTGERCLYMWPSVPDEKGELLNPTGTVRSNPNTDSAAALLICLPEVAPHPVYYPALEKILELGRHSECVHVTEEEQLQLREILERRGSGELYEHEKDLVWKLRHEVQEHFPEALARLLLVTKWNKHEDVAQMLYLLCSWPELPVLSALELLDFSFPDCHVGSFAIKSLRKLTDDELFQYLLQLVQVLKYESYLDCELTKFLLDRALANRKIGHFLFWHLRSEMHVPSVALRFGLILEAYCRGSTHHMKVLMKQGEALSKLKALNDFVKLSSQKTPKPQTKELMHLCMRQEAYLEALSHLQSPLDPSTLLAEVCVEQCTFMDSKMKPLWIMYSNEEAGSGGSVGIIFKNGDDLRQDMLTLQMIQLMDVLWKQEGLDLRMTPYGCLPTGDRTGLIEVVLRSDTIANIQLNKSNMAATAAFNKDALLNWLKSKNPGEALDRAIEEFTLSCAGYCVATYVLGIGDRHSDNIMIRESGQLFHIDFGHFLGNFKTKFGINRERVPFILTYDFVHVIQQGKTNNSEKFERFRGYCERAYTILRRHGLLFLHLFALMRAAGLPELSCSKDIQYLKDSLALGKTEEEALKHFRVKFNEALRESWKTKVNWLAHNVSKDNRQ

Regarding `COc1ncc(N2CCOc3ccc(O[C@H]4CCN(C(=O)C5COCCO5)C4)cc32)cc1F` (single isomer, unassigned) [Example H16], the IC50 against PI3K alpha came out at 871 nM; on PI3K delta it was 16 nM.
For `COc1ncc(N2C[C@H](C)Oc3ccc(O[C@H]4CCN(C(=O)C5CCOCC5)C4)cc32)cc1C#N` (single isomer, unassigned) [Example O2], in that order: 5690 nM and 49 nM.
For `CN(C)S(=O)(=O)c1cncc(N2CCOc3ccc(O[C@H]4CCN(C(=O)C5CCOCC5)C4)cc32)c1` [Example A2, 5-{6-[(S)-1-(Tetrahydro-pyran-4-carbonyl)-pyrrolidin-3-yloxy]-2,3-dihydro-benzo[1,4]oxazin-4-yl}-pyridine-3-sulfonic acid dimethylamide], in that order: 47 nM and 6 nM.
Regarding `N#Cc1cncc(N2CCOc3ccc(O[C@H]4CCN(C(=O)C5CCOCC5)C4)cc32)c1` [Example A7, 5-{6-[(S)-1-(Tetrahydro-pyran-4-carbonyl)-pyrrolidin-3-yloxy]-2,3-dihydro-benzo[1,4]oxazin-4-yl}-nicotinonitrile], the figures for the IC50 against PI3K alpha and at PI3K delta were 1920 nM and 31 nM, respectively.
`CCC(=O)N1CC[C@H](Oc2ccc3c(c2)N(c2ccc(S(C)(=O)=O)nc2)CCO3)C1` [Example A8, 1-{(S)-3-[4-(6-Methanesulfonyl-pyridin-3-yl)-3,4-dihydro-2H-benzo[1,4]oxazin-6-yloxy]-pyrrolidin-1-yl}-propan-1-one]: the results for the IC50 against PI3K alpha and against PI3K delta were 5930 nM and 40 nM, respectively.
The corresponding values for `CCC(=O)N1CC[C@H](Oc2ccc3c(c2)N(c2cnc(OC)c(C#N)c2)CCO3)C1` [Example A9, 2-Methoxy-5-[6-((S)-1-propionyl-pyrrolidin-3-yloxy)-2,3-dihydro-benzo[1,4]oxazin-4-yl]-nicotinonitrile] are 410 nM and 14 nM.
On to `CCC(=O)N1CC[C@H](Oc2ccc3c(c2)N(c2cnc(OC)c(C(F)(F)F)c2)CCO3)C1` [Example A10, 1-{(S)-3-[4-(6-Methoxy-5-trifluoromethyl-pyridin-3-yl)-3,4-dihydro-2H-benzo[1,4]oxazin-6-yloxy]-pyrrolidin-1-yl}-propan-1-one], for which the values for the half-maximal inhibitory concentration (IC50) at PI3K alpha and at PI3K delta were 220 nM and 18 nM, respectively.
For `CCC(=O)N1CC[C@H](Oc2ccc3c(c2)N(c2cnc(OC)c(F)c2)CCO3)C1` [Example A11, 1-{(S)-3-[4-(5-Fluoro-6-methoxy-pyridin-3-yl)-3,4-dihydro-2H-benzo[1,4]oxazin-6-yloxy]-pyrrolidin-1-yl}-propan-1-one], in that order: 2280 nM and 69 nM.
For the compound `CCC(=O)N1CC[C@H](Oc2ccc3c(c2)N(c2cnc(OC)c(Cl)c2)CCO3)C1` [Example A12, 1-{(S)-3-[4-(5-Chloro-6-methoxy-pyridin-3-yl)-3,4-dihydro-2H-benzo[1,4]oxazin-6-yloxy]-pyrrolidin-1-yl}-propan-1-one], the results for the IC50 at PI3K alpha and against PI3K delta were 182 nM and 3 nM, respectively.
Turning to `CCC(=O)N1CC[C@H](Oc2ccc3c(c2)N(c2cnc(OC)c(C)c2)CCO3)C1` [Example A13, 1-{(S)-3-[4-(6-Methoxy-5-methyl-pyridin-3-yl)-3,4-dihydro-2H-benzo[1,4]oxazin-6-yloxy]-pyrrolidin-1-yl}-propan-1-one], the IC50 against PI3K alpha is 292 nM; against PI3K delta it was 5 nM.
Consider `CCC(=O)N1CC[C@H](Oc2ccc3c(c2)N(c2cnc(N)c(OC)c2)CCO3)C1` [Example A14, 1-{(S)-3-[4-(6-Amino-5-methoxy-pyridin-3-yl)-3,4-dihydro-2H-benzo[1,4]oxazin-6-yloxy]-pyrrolidin-1-yl}-propan-1-one], for which the IC50 on PI3K alpha was above 9100 nM; on PI3K delta, 5400 nM.
For `CCC(=O)N1CC[C@H](Oc2ccc3c(c2)N(c2ccc(OC)c(S(=O)(=O)N(C)C)c2)CCO3)C1` [Example A15, 2-Methoxy-N,N-dimethyl-5-[6-((S)-1-propionyl-pyrrolidin-3-yloxy)-2,3-dihydro-benzo[1,4]oxazin-4-yl]-benzenesulfonamide], in that order: 4890 nM and 184 nM.
As for `CCC(=O)N1CC[C@H](Oc2ccc3c(c2)N(c2ccc(OC)c(S(C)(=O)=O)c2)CCO3)C1` [Example A16, 1-{(S)-3-[4-(3-Methanesulfonyl-4-methoxy-phenyl)-3,4-dihydro-2H-benzo[1,4]oxazin-6-yloxy]-pyrrolidin-1-yl}-propan-1-one], the IC50 on PI3K alpha was above 9100 nM; against PI3K delta, 323 nM.
Turning to `CCC(=O)N1CC[C@H](Oc2ccc3c(c2)N(c2cnc(N)c(C(F)(F)F)c2)CCO3)C1` [Example A17, 1-{(S)-3-[4-(6-Amino-5-trifluoromethyl-pyridin-3-yl)-3,4-dihydro-2H-benzo[1,4]oxazin-6-yloxy]-pyrrolidin-1-yl}-propan-1-one], the results for the IC50 on PI3K alpha and on PI3K delta were 104 nM and 14 nM, respectively.
For `CCC(=O)N1CC[C@H](Oc2ccc3c(c2)N(c2cnc(OC)c(S(=O)(=O)N4CCN(C)CC4)c2)CCO3)C1` [Example A18, 1-((S)-3-{4-[6-Methoxy-5-(4-methyl-piperazine-1-sulfonyl)-pyridin-3-yl]-3,4-dihydro-2H-benzo[1,4]oxazin-6-yloxy}-pyrrolidin-1-yl)-propan-1-one], in that order: 895 nM and 11 nM.
For `Cc1cc(N2CCOc3ccc(O[C@H]4CCN(C(=O)C5CCOCC5)C4)cc32)ccn1` [Example A19, {(S)-3-[4-(2-Methyl-pyridin-4-yl)-3,4-dihydro-2H-benzo[1,4]oxazin-6-yloxy]-pyrrolidin-1-yl}-(tetrahydro-pyran-4-yl)-methanone], in that order: 7550 nM and 380 nM.
For the compound `COc1cc(N2CCOc3ccc(O[C@H]4CCN(C(=O)C5CCOCC5)C4)cc32)ccn1` [Example A22, {(S)-3-[4-(2-Methoxy-pyridin-4-yl)-3,4-dihydro-2H-benzo[1,4]oxazin-6-yloxy]-pyrrolidin-1-yl}-(tetrahydro-pyran-4-yl)-methanone], the values for the IC50 against PI3K alpha and at PI3K delta were 757 nM and 21 nM, respectively.
Regarding `Nc1ncc(N2CCOc3ccc(O[C@H]4CCN(C(=O)C5CCOCC5)C4)cc32)cc1C(F)(F)F` [Example A23, {(S)-3-[4-(6-Amino-5-trifluoromethyl-pyridin-3-yl)-3,4-dihydro-2H-benzo[1,4]oxazin-6-yloxy]-pyrrolidin-1-yl}-(tetrahydro-pyran-4-yl)-methanone], the IC50 is 1570 nM on PI3K alpha and 170 nM against PI3K delta.
On to `CCC(=O)N1CC[C@H](Oc2ccc3c(c2)N(c2ccc(C)c(S(=O)(=O)N4CCCCC4)c2)CCO3)C1` [Example A24, 1-((S)-3-{4-[4-Methyl-3-(piperidine-1-sulfonyl)-phenyl]-3,4-dihydro-2H-benzo[1,4]oxazin-6-yloxy}-pyrrolidin-1-yl)-propan-1-one], for which the IC50 against PI3K alpha came to 6880 nM; on PI3K delta, 317 nM.
The corresponding values for `CCC(=O)N1CC[C@H](Oc2ccc3c(c2)N(c2cncc(S(=O)(=O)N4CCOCC4)c2)CCO3)C1` [Example A26, 1-((S)-3-{4-[5-(Morpholine-4-sulfonyl)-pyridin-3-yl]-3,4-dihydro-2H-benzo[1,4]oxazin-6-yloxy}-pyrrolidin-1-yl)-propan-1-one] are 152 nM and 22 nM.
For `CCC(=O)N1CC[C@H](Oc2ccc3c(c2)N(c2cncc(S(=O)(=O)N4CCN(C)CC4)c2)CCO3)C1` [Example A28, 1-((S)-3-{4-[5-(4-Methyl-piperazine-1-sulfonyl)-pyridin-3-yl]-3,4-dihydro-2H-benzo[1,4]oxazin-6-yloxy}-pyrrolidin-1-yl)-propan-1-one], in that order: 531 nM and 16 nM.
The corresponding values for `CCC(=O)N1CC[C@H](Oc2ccc3c(c2)N(c2ccc(OC)c(S(=O)(=O)N(C)OC)c2)CCO3)C1` [Example A29, 2,N-Dimethoxy-N-methyl-5-[6-((S)-1-propionyl-pyrrolidin-3-yloxy)-2,3-dihydro-benzo[1,4]oxazin-4-yl]-benzenesulfonamide] are 2730 nM and 42 nM.
For `CCC(=O)N1CC[C@H](Oc2ccc3c(c2)N(c2cncc(S(=O)(=O)N(C)OC)c2)CCO3)C1` [Example A30, 5-[6-((S)-1-Propionyl-pyrrolidin-3-yloxy)-2,3-dihydro-benzo[1,4]oxazin-4-yl]-pyridine-3-sulfonic acid methoxy-methyl-amide], the IC50 against PI3K alpha was 260 nM; at PI3K delta it was 31 nM.
Take `CCC(=O)N1CC[C@H](Oc2ccc3c(c2)N(c2ccc(OC)c(S(=O)(=O)NOC)c2)CCO3)C1` [Example A31, 2,N-Dimethoxy-5-[6-((S)-1-propionyl-pyrrolidin-3-yloxy)-2,3-dihydro-benzo[1,4]oxazin-4-yl]-benzenesulfonamide]: the IC50 against PI3K alpha was determined as 6020 nM; at PI3K delta, 88 nM.
